Results taken from US4550115A, “Certain piperidino-lower-alkylene esters of 3-methylflavone-8-carboxylates possessing smooth muscle relaxant activity” (Recordati S.A., Chemical & Pharmaceutical Company, priority 1981, dated 1985).
Counter-ions that a name gives are not always drawn. Like-named read-outs stand apart in the source and are kept apart here.

Tests used:
[1] = test system: guinea pig ileum; assay: Antispastic or antispasmodic activity, BaCl2-induced contraction of guinea pig ileum (Magnus method); settings: Cavia porcellus, 1 min, read-out: ED50 (antispastic or antispasmodic activity)
Method: The antispastic or antispasmodic activity was evaluated following the Magnus method [Pflugers Arch. […] Two equal contractions were induced by BaCl2 at a concentration ranging between 1 and 4.10^-4 M in guinea pig ileum maintained at 30° C. in Ringer solution and aerated with Carbogen.
The test drug was administered and, one minute later, BaCl2 in the same concentration. The inhibition of the contraction was observed.

[2] = physchem; settings: phosphate buffer, pH 7.4
Method: Such stability was measured at 37° C. in simulated gastric fluid (U.S. Pat. No. XX, 1105, 1980) and in phosphate buffer (pH 7.4) by spectrodensitometric determination of 3-methylflavone-8-carboxylic acid resulting from eventual hydrolysis.

[3] = test system: guinea pig depolarized taenia coli; assay: Calcium blocking activity on guinea pig depolarized taenia coli (Ferrari and Carpenedo); settings: Cavia porcellus; cumulative CaCl2, K+-depolarized guinea pig taenia coli; read-out: Calcium blocking activity ED50
Method: The calcium blocking activity was tested on guinea pig depolarized taenia coli, according to the method described by Ferrari and Carpenedo [Arch. Int. Pharmacodyn., 174, 223 (1968)]. The guinea pig taenia coli was allowed to stabilize in Tyrode solution without Ca^++. It was then washed with K2 SO4 Ringer solution and afterwards perfused with KNO3 Ringer. Cumulative concentrations of CaCl2 were added to the organ bath in absence or presence of the test drug.

[4] = test system: guinea pig isolated ureter; assay: Antispastic activity, spontaneous mobility of guinea pig isolated ureter (Trendelemburg method); settings: Cavia porcellus
Method: The smooth muscle relaxant activity of the novel flavone derivatives was also measured through the spontaneous mobility of guinea pig isolated ureter. […] The ureter was allowed to stabilize in Tyrode solution with the upper part closed and the inner part connected to a pressure transducer. The test drugs were given cumulatively and the spontaneous circular and longitudinal contractions of the ureter were measured.

[5] = in vivo; settings: mouse
[6] = guinea pig ileum, 30° C., BaCl2 1 to 4.10^-4 M, drug one minute before BaCl2, inhibition of contraction
[7] = circular contractions, cumulative dosing, read-out: Antispastic Activity Isolated Ureter ED50, circular contractions
[8] = longitudinal contractions, cumulative dosing, read-out: Antispastic Activity Isolated Ureter ED50, longitudinal contractions

Compound | IC50 [1, 6] [µM] | remaining at 1 h [2] [%] | remaining at 3 h [2] [%] | IC50 [3] [µM] | IC50 [4, 7] [µM] | IC50 [4, 8] [µM] | LD50 ([5]; ip) [µmol/kg] | LD50 ([5]; po) [µmol/kg] | IC50 ([4]; read-out: Antispastic Activity Isolated Ureter ED50, circular contractions) [µM] | IC50 ([4]; read-out: Antispastic Activity Isolated Ureter ED50, longitudinal contractions) [µM] | IC50 [1] [µM]
Cc1c(-c2ccccc2)oc2c(C(=O)OC(CN3CCCCC3)c3ccccc3)cccc2c1=O (centres unmarked) [Active compound 4, 1-phenyl-2-piperidino-ethyl] | 6.7 | 68 | 34 | – | – | – | – | – | – | – | –
Cc1c(-c2ccccc2)oc2c(C(=O)OC(C)(C)CN3CCCCC3C)cccc2c1=O (centres unmarked) [Active compound 6] | 3.4 | 100 | 100 | 7.5 | 5.3 | 2.5 | – | – | – | – | –
Cc1c(-c2ccccc2)oc2c(C(=O)OC3CCCN(C)C3)cccc2c1=O.Cl (centres unmarked) [Active compound 11, N-methyl-3-piperidyl 3-methylflavone-8-carboxylate hydrochloride] | – | 100 | 100 | – | – | – | 360 | 770 | – | – | –
Cc1c(-c2ccccc2)oc2c(C(=O)OC3CC4CCC(C3)N4C)cccc2c1=O (centres unmarked) [Active compound 12, 3-tropinyl-3-methylflavone-8-carboxylate] | – | 100 | 100 | – | – | – | 420 | 950 | 20 | 9 | 4.3
Cc1c(-c2ccccc2)oc2c(C(=O)OC(C)CN3CCCCC3)cccc2c1=O (centres unmarked) [Active compound 3, 1-methyl-piperidino-ethyl] | 9.7 | 40 | 30 | 19 | – | – | 500 | 850 | – | – | –
Cc1c(-c2ccccc2)oc2c(C(=O)OCC(O)CN3CCCCC3)cccc2c1=O (centres unmarked) [Active compound 7, 2-hydroxy-3-(N-piperidino)propyl 3-methylflavone-8-carboxylate] | – | 44 | 25 | – | – | – | 580 | 3100 | – | – | –
Cc1c(-c2ccccc2)oc2c(C(=O)OC3CCCCC3CN3CCCCC3)cccc2c1=O (centres unmarked) [Active compound 9, 2-piperidinomethyl cyclohexyl] | 4 | 88 | 87 | 26 | – | – | 190 | 1080 | – | – | –
Cc1c(-c2ccccc2)oc2c(C(=O)OCCN3CCCCC3)cccc2c1=O [FLAVOXATE, 2-(N-piperidino)ethyl 3-methylflavone-8-carboxylate hydrochloride, reference compound] | 5.6 | 22 | 10 | 25 | – | – | 900 | 1890 | – | – | –
Cc1c(-c2ccccc2)oc2c(C(=O)O[C@@H]3CCCC[C@@H]3N3CCCCC3)cccc2c1=O.Cl (relative stereo) [Active compound 8, cis-2-piperidino-cyclohexyl 3-methyl-flavone-8-carboxylate hydrochloride] | 2.7 | 85 | 70 | 7.3 | 5 | 2.5 | – | 2160 | – | – | –
Cc1c(-c2ccccc2)oc2c(C(=O)O[C@@H]3CCCC[C@H]3N3CCCCC3)cccc2c1=O (relative stereo) [Active compound 14] | 7.7 | – | – | – | – | – | – | – | – | – | –
Cc1c(-c2ccccc2)oc2c(C(=O)OCCCN3CCCCC3C)cccc2c1=O (centres unmarked) [Active compound 1, 3-(2-methyl-N-piperidino)-propyl 3-methylflavone-8-carboxylate hydrochloride] | 4 | 100 | 100 | 24 | 8.5 | 6.9 | 560 | 1860 | – | – | –
Cc1c(-c2ccccc2)oc2c(C(=O)OC3CCN(C)CC3)cccc2c1=O [Active compound 10, 1-methyl-4-piperidinyl] | – | 100 | 100 | – | – | – | 150 | 850 | – | – | –
Cc1c(-c2ccccc2)oc2c(C(=O)OC(C)(C)CN3CCCCC3)cccc2c1=O [Active compound 5, 1,1-dimethyl-2-(N-piperidino)ethyl-3-methylflavone-8-carboxylate] | 2.4 | 96 | 91 | 8.6 | 12 | 2.8 | – | – | – | – | –
Cc1c(-c2ccccc2)oc2c(C(=O)OC(C)CCN3CCCCC3)cccc2c1=O (centres unmarked) [Active compound 2, 1-methyl-3-(N-piperidino)propyl] | 6.2 | 100 | 100 | 16 | – | – | 160 | 690 | – | – | –
